In PubChem BioAssay (NCI):
“And” between values parts separate entries of the source, which are not always exact repeats. Identical values can stand only once.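 Five concentrations, 48 hours, 96-well plates. GI50 = concentration required for 50% inhibition of growth. TGI is the concentration that stops growth completely.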

Columns and labels:
Assay in all cases: DTP human tumour cell line panel, 48 h
SK-MEL-28 melanoma = test system: SK-MEL-28 melanoma
PC-3 prostate = test system: PC-3 prostate
IGROV1 ovarian = test system: IGROV1 ovarian
U251 CNS = test system: U251 CNS
K-562 leukemia = test system: K-562 leukemia
UACC-62 melanoma = test system: UACC-62 melanoma
HOP-62 NSCLC = test system: HOP-62 NSCLC
OVCAR-4 ovarian = test system: OVCAR-4 ovarian
MOLT-4 leukemia = test system: MOLT-4 leukemia
HCT-15 colon = test system: HCT-15 colon

SMILES	GI50 (SK-MEL-28 melanoma)	TGI (SK-MEL-28 melanoma)	GI50 (PC-3 prostate)	TGI (PC-3 prostate)	GI50 (IGROV1 ovarian)	TGI (IGROV1 ovarian)	GI50 (U251 CNS)	TGI (U251 CNS)	GI50 (K-562 leukemia)	TGI (K-562 leukemia)	GI50 (UACC-62 melanoma)	TGI (UACC-62 melanoma)	GI50 (HOP-62 NSCLC)	TGI (HOP-62 NSCLC)	GI50 (OVCAR-4 ovarian)	TGI (OVCAR-4 ovarian)	GI50 (MOLT-4 leukemia)	TGI (MOLT-4 leukemia)	GI50 (HCT-15 colon)	TGI (HCT-15 colon)
Nc1nc(N)c2cc(S(=O)(=O)c3cccc(C(F)(F)F)c3)ccc2n1	85.1 µM	> 100 µM	3.36 µM	> 100 µM	5.28 µM	> 100 µM	3.52 µM	> 100 µM	0.682 µM	> 100 µM	3.41 µM	> 100 µM	6.43 µM	34.2 µM	5.71 µM	> 100 µM	4.32 µM	> 100 µM	3.09 µM	> 100 µM
CC(C)(C)CNCCO		> 100 µM		> 100 µM		> 100 µM		> 100 µM		> 100 µM		> 100 µM		> 100 µM		> 100 µM		> 45.7 µM		> 100 µM
Clc1cccc(-c2cc(-c3ccc4c(c3)OCCO4)[nH]n2)c1	27.2 µM	57 µM	4.87 µM	45.8 µM	2.47 µM	36.7 µM	6.83 µM	43 µM	1.04 µM	250 µM	2 µM	44.8 µM	2.39 µM	41.6 µM	13.8 µM	49.5 µM	3.15 µM	74.6 µM	1.11 µM	33.5 µM
CCCCCOC(=O)c1c(C)[nH]c(/C=C2\N=C(c3ccc[nH]3)C=C2OC)c1C	0.129 µM	1.25 µM	0.0212 µM	3.27 µM	0.0494 µM	1.52 µM	0.0219 µM	0.461 µM	0.0421 µM	1.25 µM	0.0213 µM	0.0491 µM	0.0436 µM	0.937 µM	0.0559 µM	2.39 µM	0.0265 µM	1.43 µM	0.0264 µM	1.4 µM
COc1ccc(CC(C)NCC(O)c2ccc(O)c(NC=O)c2)cc1 (configuration not stated)		> 100 µM		> 100 µM		> 100 µM		> 100 µM		> 100 µM		> 100 µM		> 100 µM		> 100 µM		> 100 µM		> 100 µM
O=c1oc2ccccc2cc1P(=O)(O)O		> 100 µM		> 100 µM		> 100 µM		> 100 µM		> 100 µM		> 100 µM		> 100 µM		> 100 µM		> 100 µM		> 100 µM
C=C(C)[C@@H]1CC[C@]2(C(=O)OC)CC[C@]3(C)[C@H](CC[C@@H]4[C@@](C)(CCc5nn[nH]n5)[C@H](C(=C)C)CC[C@]43C)[C@@H]12	12.9 µM	27.8 µM	3.46 µM	17.2 µM	17.4 µM	46.2 µM	15.4 µM	32.4 µM	18.4 µM	> 100 µM	5.35 µM	19.6 µM	18.7 µM	41.1 µM	14.7 µM	48.1 µM	11.7 µM	40.8 µM	13.2 µM	35.7 µM
CCCN1CCC(Oc2cc(Nc3nc(Nc4cccc(F)c4C(N)=O)c4cc[nH]c4n3)c(OC)cc2Cl)CC1	2.82 µM	6.09 µM	2.55 µM	6.73 µM	3.86 µM	9.22 µM	1.68 µM	5.21 µM	0.62 µM	1.73 µM	3.61 µM	7.09 µM	1.31 µM	4.36 µM	3.67 µM	8.05 µM	3.48 µM	7.97 µM	1.44 µM	6.84 µM
CCOc1ccc2nc3cc(N)ccc3c(N)c2c1	4.4 µM and 4.3 µM	15.7 µM and 15.9 µM	3.85 µM and 2.99 µM	16.1 µM and 12.7 µM	11.5 µM and 15.3 µM	37.3 µM and 45.4 µM	0.534 µM and 0.476 µM	2.49 µM and 2.09 µM	6.03 µM and 6.26 µM	20.2 µM and 25.4 µM	4.7 µM and 2.56 µM	18.5 µM and 12 µM	1.49 µM and 1.58 µM	6.84 µM and 6.49 µM	2.3 µM and 3.38 µM	5.45 µM and 13 µM	2.99 µM and 3.26 µM	12.2 µM and 12.4 µM	23.2 µM and 12.1 µM	> 100 µM and 33.7 µM
COc1cc2c(cc1OCCCCCOc1ccc(-c3nc4ccccc4s3)cc1)N=C[C@@H]1CCCN1C2=O	8.74 µM	31.7 µM	1.14 µM	7.04 µM	4.39 µM	43.5 µM	1.47 µM	16.1 µM	0.914 µM	12.2 µM	3.27 µM	7.93 µM	1.62 µM	7.59 µM	3.02 µM	> 76.5 µM	3.5 µM	20 µM	2.46 µM	22.2 µM
COCCn1c(Nc2ccc(C(=O)NO)cc2)nc2ccccc21	4.94 µM	21 µM	8.78 µM	> 100 µM	2.39 µM	15.2 µM	3.99 µM	18.6 µM	3.03 µM	> 100 µM	2.06 µM	10.5 µM	4.58 µM	55.1 µM	16.1 µM	> 100 µM	3.86 µM	> 100 µM	9.14 µM	31.5 µM
COC1C(OC(=O)/C=C/C=C/C=C/C=C/C(=O)O)CCC2(CO2)C1C1(C)OC1CC=C(C)C (configuration not stated)	0.442 µM	> 100 µM		73.1 µM		> 95.1 µM	0.032 µM			> 89.6 µM	0.101 µM		0.198 µM	> 100 µM	0.184 µM	> 87 µM	0.347 µM	78.7 µM	0.296 µM	> 93.9 µM
C=CCn1c(SCC(=O)Nc2ccc(C(=O)/C=C/c3cc(OC)c(OC)c(OC)c3)cc2)nnc1-c1cc(OC)c(OC)c(OC)c1	3.29 µM	32.3 µM	4.29 µM	22.6 µM	3.42 µM	18.4 µM	2.15 µM	5.38 µM	3.44 µM	> 100 µM	3.31 µM	17.5 µM	5.17 µM	37.9 µM	5.67 µM	38.6 µM	4.22 µM	> 100 µM	1.86 µM	5.61 µM
OC(c1ccccc1)c1c(-c2ccccc2)[nH]c(-c2ccccc2)c1C(O)c1ccccc1 (configuration not stated)		12.1 µM		21.1 µM		12 µM		18.5 µM		4.64 µM		7.97 µM		17.5 µM		4.82 µM		7 µM		40.1 µM
CCCCCCCCCCCC1=NC(C)(C)CN1C(C)C	1.78 µM	3.37 µM	2.12 µM	11.1 µM	1.64 µM	4.53 µM	3.4 µM	12.8 µM	1.94 µM	5.82 µM	1.75 µM	3.54 µM	4.35 µM	16.2 µM	4.29 µM	15.9 µM	2.67 µM	7.44 µM	2.63 µM	8.76 µM
CCn1c(-c2nonc2N)nc2cnc(Oc3cccc(NC(=O)c4ccc(OCCN5CCOCC5)cc4)c3)cc21	> 20.1 µM	> 25 µM	2.88 µM	> 25 µM	2.98 µM	> 20.3 µM	7.17 µM	> 25 µM	7.38 µM	> 25 µM	6.39 µM	> 25 µM	1.5 µM	> 25 µM	4.48 µM	> 25 µM	4.29 µM	24.4 µM	2.16 µM	> 25 µM
COc1cccc2c1C(=O)c1c(O)c3c(c(O)c1C2=O)C[C@@](O)(/C(C)=N/NC(=O)c1cccc([N+](=O)[O-])c1)C[C@@H]3OC1CC(N)C(O)C(C)O1 (some centres not stated)	0.608 µM	2.45 µM	0.616 µM	8.74 µM	0.932 µM		0.22 µM	14 µM	0.356 µM	5.16 µM	0.199 µM	1.5 µM	0.283 µM	4.41 µM	0.65 µM	11.3 µM	0.0524 µM	4.9 µM	1.57 µM	14.2 µM
COc1cccc(C2CC(C)(O)Oc3cc4c(cc32)OCO4)c1 (configuration not stated)		> 100 µM		> 100 µM		> 100 µM		86.5 µM		> 100 µM		> 100 µM		74.4 µM		> 100 µM		60.5 µM		83.3 µM
COc1ccc2c(c1)c(-c1ccc(-c3cn(C)c4ccc(OC)cc34)s1)cn2C	> 100 µM	> 100 µM	> 100 µM	> 100 µM	> 100 µM	> 100 µM	> 100 µM	> 100 µM	> 100 µM	> 100 µM	> 100 µM	> 100 µM	> 100 µM	> 100 µM	90.2 µM	> 100 µM	> 100 µM	> 100 µM	> 100 µM	> 100 µM
CCN(CC)CCN1C(=O)C2C3C(C)=CC(OC(C)=O)(CC3C)C2C1=O (configuration not stated)			> 100 µM	> 100 µM	> 100 µM	> 100 µM	> 100 µM	> 100 µM	> 100 µM	> 100 µM	> 100 µM	> 100 µM	> 100 µM	> 100 µM	> 100 µM	> 100 µM	> 100 µM	> 100 µM	> 100 µM	> 100 µM
